Measured values: article PMC7520468, “Salvia ceratophylla L. from South of Jordan: new insights on chemical composition and biological activities” (Natural Products and Bioprospecting, 2020)
Converted amounts (≈) assume the structure as drawn.

Key:
[1] = test system: NO production in mouse macrophage cells (RAW 264.7); assay: Nitric oxide (NO) measurement, LPS-stimulated macrophages, Griess reagent; type: cell-based; settings: RAW264.7, RAW 264.7, LPS 5 µg/mL, 24 h, NA = not active at tested concentration, read-out: NO inhibition IC50
Description: The NO inhibition by EO, extracts of S. ceratophylla and pure compounds, was assess by the following methodology. Briefly, mouse macrophage cells (RAW 264.7) were culture in phenol red free RPMI medium with 10% bovine calf serum and 100 U/mL penicillin and 100 µg/mL streptomycin.
Cells were seed in 96-well plates (50,000 cells/well) and incubated during 24 h. The tested samples were dilute in serum free medium, incubated during 30 min, then lipopolysaccharide (LPS, 5 µg/mL) was added and cells were incubated for further 24 h. The level of nitrite in the cell supernatant was measure by using Griess reagent. The inhibition of nitrite production by the tested samples was calculate in comparison to the vehicle control. Parthenolide (Sigma-Aldrich) was use as positive control. IC50 values were obtain from dose curves.

[2] = test system: several cancer cell lines; design: method as in earlier work; settings: up to a concentration of 200 μg/mL; cited from earlier work
[3] = test system: carrageenin-induced hind paw edema; design: method as in PMID 23334570; settings: dose of 25 mg/kg, p = 0.03; cited from earlier work
[4] = test system: L. amazonensis promastigotes; design: method as in PMID 12760864; settings: cited from earlier work
[5] = test system: T. brucei brucei blood stream forms; design: method as in PMID 16557466; settings: cited from earlier work
[6] = test system: human HepG2 hepatoma cells; assay: Inhibition of cellular oxidative stress assay (ABAP, DCFH-DA); type: cell-based
Description: The cellular antioxidant activity of S. ceratophylla EO and other extracts was measured in human HepG2 hepatoma cells This assay determines the ability of test samples to prevent intracellular generation of peroxyl radicals in response to 2,2- azobis (2-amidinopropane) dihydrochloride (ABAP, Sigma-Aldrich, St Louis, MO, USA).
HepG2 cells were culture in Dulbecco's Modified Eagle Medium (DMEM) supplemented with 10% fetal bovine serum (FBS), 50 units/mL penicillin and 50 µg/mL streptomycin. Cells were seed in 96-well plates (60,000 cells/well) and incubated for 24 h. The tested samples were diluted in serum free medium containing 25 µM 2^′,7′, dichoroflouresceine diacetate (DCFH-DA, Invitrogen, Carlsbad, CA, USA). The cells were wash with PBS and treated with test samples during 1 h. The medium containing tested samples was removed, ABAP (600 µM) was added and the plate was immediately placed on a Spectra Max plate reader for kinetic reading every 5 min during 1 h (37 °C, emission at 538 nm and excitation at 485 nm). Quercetin (Sigma-Aldrich) was use as positive control. To calculate the percentage of decrease in oxidative stress, the Area Under the Curve (AUC) of fluorescence versus time was used. Decrease in oxidative stress%=AUC control^100-[AUC tested sample×100]

[7] = test system: L. donovani promastigotes; assay: Leishmania donovani promastigote assay (Alamar Blue); type: cell-based; settings: 72 h, 26 °C, tested concentrations (µg/mL) 20–0.8 extracts, 10–0.4 pure compounds and pentamidine, 2.0–0.08 amphotericin B, NA = not active
Description: (§1) EO and extracts (A-D) at a stock concentration of 20 mg/mL were dilute to 4 mg/mL with DMSO. The obtained solutions (4 mg/mL) were four-fold diluted with incomplete RPMI medium to 1 mg/mL. Pure compounds at a stock concentration of 2 mg/mL in DMSO were diluted four-fold with incomplete RPMI medium to 0.5 mg/mL.
(§2) The extracts and pure compounds (highest concentrations 20 µg/mL for extracts and 10 µg/mL for pure compounds) were subject to different tests, namely Leishmania donovani promastigote assay, L. donovani axenic amastigote assay, L. donovani THP1 macrophage amastigote assay, Trypanosoma brucei trypamastigotes assay and THP1 toxicity assay. Alamar Blue assay was perform as previously described by other authors.
(§3) These assays have been adapted to 384-well micro-plate format. A 3–4 days old culture of Leishmania donovani promastigotes harvested in the exponential growth phase was diluted with RPMI medium to 1 × 10^6 cells/mL for promastigote assays. A 3–4 days old culture of Leishmania donovani axenic amastigotes was diluted with RPMI medium to 2 × 10^6 cells/mL for axenic amastigote assays. A 2 days old culture of Trypanosoma brucei harvested in the exponential phase was diluted with Iscove's Modified Dulbecco's Medium (IMDM) to 5 × 10^3 cells/mL for the antitrypanosomal assay.
(§4) Samples were added to the L. donovani promastigotes, L. donovani axenic amastigotes or T. brucei trypamastigotes cultures. The extracts were initially test at single concentrations of […] for primary screening. The active extracts and pure compounds were test at three or six concentrations ranging from 10 to 0.0032 µg/mL. The plates were incubated at 26 °C for 72 h (37 °C for axenic amastigotes and T. brucei trypamastigotes) and growth of cultured parasites was determined by the Alamar Blue assay [32 33].

[8] = test system: L. donovani axenic amastigotes; assay: L. donovani axenic amastigote assay (Alamar Blue); type: cell-based; settings: Leishmania donovani; first Amastigote column; 72 h, 37 °C; tested concentrations (µg/mL) 20–0.8 extracts, 10–0.4 pure compounds and pentamidine, 2.0–0.08 amphotericin B; NA = not active
Description: as §1, §2
These assays have been adapted to 384-well micro-plate format. A 3–4 days old culture of Leishmania donovani promastigotes harvested in the exponential growth phase was diluted with RPMI medium to 1 × 10^6 cells/mL for promastigote assays. […]
Samples were added to the L. donovani promastigotes, L. donovani axenic amastigotes or T. brucei trypamastigotes cultures. […] The plates were incubated at 26 °C for 72 h (37 °C for axenic amastigotes and T. brucei trypamastigotes) and growth of cultured parasites was determined by the Alamar Blue assay [32 33].

NF-κB = assay: Inhibition of NF-κB activity, luciferase reporter in SW 1353 cells; type: cell-based; settings: Homo sapiens, SW1353; SW 1353, PMA 70 ng/mL, 8 h; NA = not active at tested concentration
Description: The inhibition activity of tested samples against NF-κB was evaluate as described. The SW 1353 human chondrosarcoma cell line was culture in a mixture of Dulbecco's Modified Eagle's Medium (DMEM) and Ham's F-12 Nutrient (DMEM/F12) supplemented with 10% FBS, 100 U/Ml penicillin and 100 µg/mL streptomycin. Cultured cells were washed in antibiotic and FBS-free DMEM/F12 medium and then re-suspended in FBS-free DMEM/F12 medium containing 2.5% FBS. NF-κB luciferase plasmid construct was added to the cell suspension in a concentration of 50 µg/mL and incubated for 5 min at 25 °C. The cells were transfected by electroporation at 160 V and one 70 ms pulse using BTX disposable cuvettes (model 640 in a BTX Electro Square Porator T 820—BTX I, San Diego, CA, USA), Transfected cells were plate in 96-well plates at a density of 1.25 × 10^5cells per well in 200 µL of DMEM/F12 containing 10% FBS and antibiotics. After incubation for 24 h, the cells were treated with test samples for 30 min and then induced with PMA (70 ng/mL) for 8 h. The inhibition of NF-κB activity by EO, other extracts, and pure compounds was calculated in comparison to vehicle control. The IC50 values were obtain from the dose curves. Parthenolide was use as positive control.

[9] = test system: T. brucei trypamastigotes; assay: Trypanosoma brucei trypamastigotes assay (Alamar Blue); type: cell-based; settings: 72 h, 37 °C, tested concentrations (µg/mL) 20–0.8 extracts and DFMO, 10–0.4 pure compounds, NA = not active
Description: as §1, §2, §3, §4

[10] = test system: transcription factor Sp-1; assay: Sp-1 inhibition; type: cell-based; settings: NA = not active at tested concentration
[11] = test system: skin malignant melanoma (SK-MEL); assay: Cytotoxic activity, Neutral Red assay, SK-MEL; type: cell-based; settings: Homo sapiens; 48 h; NA = not active at 10 µg/mL for pure compound, at 100 µg/mL for extracts
Description: (§5) All cell lines used in this study were purchase from American Type Culture Collection (ATCC, Rockville, MD). The cytotoxic activity of the EO, extracts isolated from S. ceratophylla and pure compounds was determined in vitro against various human cancer cells: skin malignant melanoma (SK-MEL), human KB carcinoma (KB), breast ductal carcinoma (BT-549), ovarian carcinoma (SK-OV-3), and in two non-cancerous mammalian kidney cell lines (LLC-PK1 and VERO). Cells were seed at a density of 25,000 cells/well and incubated during 24 h. The tested EO, extracts and pure compounds were added separately at studied concentrations and cells were re-incubated during 48 h. After incubation time, the viability of cells was assessed by using Neutral Red Dye as described. DMSO was use as negative control and doxorubicin as positive control.

human KB carcinoma (KB) = assay: Cytotoxic activity, Neutral Red assay, KB; type: cell-based; settings: 48 h, NA = not active at 10 µg/mL for pure compound, at 100 µg/mL for extracts
Description: as §5

[12] = test system: breast ductal carcinoma (BT-549); assay: Cytotoxic activity, Neutral Red assay, BT-549; type: cell-based; settings: Homo sapiens, 48 h, NA = not active at 10 µg/mL for pure compound, at 100 µg/mL for extracts
Description: as §5

[13] = test system: ovarian carcinoma (SK-OV-3); assay: Cytotoxic activity, Neutral Red assay, SK-OV-3; type: cell-based; settings: Homo sapiens, 48 h, NA = not active at 10 µg/mL for pure compound, at 100 µg/mL for extracts
Description: as §5

[14] = Cytotoxic activity, Neutral Red assay, LLC-PK1; type: cell-based; settings: pig, LLC-PK1 kidney epithelial cells (non-cancerous), NA = not active at 10 µg/mL for pure compound, at 100 µg/mL for extracts
Description: as §5

[15] = Cytotoxic activity, Neutral Red assay, Vero; type: cell-based; settings: African green monkey, Vero kidney fibroblast cells (non-cancerous), NA = not active at 10 µg/mL for pure compound, at 100 µg/mL for extracts
Description: as §5

[16] = test system: differentiated THP1 cells; assay: THP1 toxicity assay (Alamar Blue); type: cell-based; settings: Homo sapiens, THP-1; 48 h; tested concentrations (µg/mL) 20–0.8 extracts, 10–0.4 pure compounds and pentamidine, 2.0–0.08 amphotericin B; NA = not active
Description: Alamar Blue assay was perform as previously described by other authors. […] PMA was added to a final concentration of 25 ng/mL. A PMA treated culture was dispense in experimental culture plates and incubated overnight at 37 °C in a 5% CO2 incubator. The plates with differentiated THP1 cells were wash with serum-free medium. For THP1 toxicity assay, the diluted test samples (extracts or pure compounds) were add over differentiated THP1 cells and plates were incubated during 48 h at 37 °C in a 5% CO2 incubator. Cell growth was determined by the Alamar Blue assay.

[17] = compounds of Strychnos spinosa EO

In the case of `C=CC(C)(O)CCC=C(C)C` (stereo not drawn) [Linalool], the IC50 [1] is listed as 18 µg/mL (≈ 117 µM), the “cytotoxic activity against several cancer cell lines” value [2] is listed as “did not exhibit cytotoxic activity” and the “inhibition of carrageenin-induced hind paw edema” value [3] is listed as 55%. The “MIC, viability of L. amazonensis promastigotes” value [4] was 0.085 ng/mL and the “IC50 towards Trypanosoma” value [5, 17] was 2.5 µg/mL (≈ 16.2 µM).

In the case of `O=c1c(O)c(-c2ccc(O)c(O)c2)oc2cc(O)cc(O)c12` [Quercetin], the “% decrease in oxidative stress” value ([6]; 25 µM, positive control) is reported as 75%.

For `C=CC(C)(O)CCC=C(C)CCC=C(C)C` (mixture of isomers) [nerolidol], the “IC50 towards Trypanosoma” value [5, 17] is listed as 1.7 µg/mL and the “selectivity index (SI) towards Trypanosoma” value [5, 17] is listed as 35.7.

Compound `C[C@@H]1[C@H](O)[C@@H](C)/C=C/C=C/C=C/C=C/C=C/C=C/C=C/[C@H](O[C@@H]2O[C@H](C)[C@@H](O)[C@H](N)[C@@H]2O)C[C@@H]2O[C@](O)(C[C@@H](O)C[C@@H](O)[C@H](O)CC[C@@H](O)C[C@@H](O)CC(=O)O[C@H]1C)C[C@H](O)[C@H]2C(=O)O` [Amphotericin B] has an IC50 [7] of 0.14 µg/mL (≈ 0.152 µM), an IC90 [7] of 0.324 µg/mL (≈ 0.351 µM) and an IC50 [8] of 0.181 µg/mL (≈ 0.196 µM).

For `CC1=CC[C@@H](C(C)(C)O)CC1` [α-Terpineol], the IC50 (NF-κB) was 100 µg/mL (≈ 648 µM), the IC50 ([9]; Trypanosoma brucei) was 6.04 µg/mL (≈ 39.2 µM) and the IC90 ([9]; Trypanosoma brucei) was 8.22 µg/mL (≈ 53.3 µM). The “activity against T. brucei brucei blood stream forms” value [5] was “slightly active”.

In the case of `NCCC[C@](N)(C(=O)O)C(F)F` [α-difluoromethylornithine], the “T. brucei IC50” value [9] is reported as 4.792 µg/mL and the “T. brucei IC90” value [9] is reported as 7.760 µg/mL.

In the case of `C=C1CC/C=C(\C)CC[C@@H]2[C@@H]1CC2(C)C` [Caryophyllene, (-)trans-Caryophyllene], the “% decrease in oxidative stress” value ([6]; 250 µg/mL, pure compounds, NA = not active at tested concentration) is reported as 31%, the “% decrease in oxidative stress” value ([6]; 500 µg/mL, pure compounds, NA = not active at tested concentration) is reported as 35% and the IC50 (NF-κB) is reported as 45 µg/mL (≈ 220 µM). For the same compound, the IC50 [10] was 48 µg/mL (≈ 235 µM).

`C=C1C(=O)O[C@H]2[C@H]1CC/C(C)=C/CC[C@@]1(C)O[C@@H]21` [Parthenolide] gave an IC50 [1] of 0.48 µg/mL (≈ 1.93 µM) and an IC50 (NF-κB) of 0.33 µg/mL (≈ 1.33 µM).

With `COc1cccc2c1C(=O)c1c(O)c3c(c(O)c1C2=O)C[C@@](O)(C(=O)CO)C[C@@H]3O[C@H]1C[C@H](N)[C@H](O)[C@H](C)O1` [Doxorubicin] the IC50 [11] was 0.8 µg/mL (≈ 1.47 µM), the IC50 (human KB carcinoma (KB)) was 1.4 µg/mL (≈ 2.58 µM) and the IC50 [12] was 0.85 µg/mL (≈ 1.56 µM). It also gave an IC50 [13] of 2 µg/mL (≈ 3.68 µM), an IC50 at 48 h [14] of 1.2 µg/mL (≈ 2.21 µM) and an IC50 at 48 h [15] greater than 5 µg/mL.

With `N=C(N)c1ccc(OCCCCCOc2ccc(C(=N)N)cc2)cc1` [Pentamidine] the IC50 [7] was 1.02 µg/mL (≈ 3.01 µM), the IC90 [7] was 9.28 µg/mL (≈ 27.3 µM) and the IC50 [8] was 3.8 µg/mL (≈ 11.2 µM). For the same compound, the IC90 [16] was 1.74 µg/mL (≈ 5.1 µM).
